Patent US20110086759A1, “CHEMICAL COMPOUNDS” (SYNGENTA CROP PROTECTION, INC., priority 2007, published 2011)

How the values were obtained:
Type in all cases: in vivo
[1] = test system: Amaranthus retoflexus (AMARE); experiment: Pre-emergence biological efficacy, glasshouse pot test; details: Amaranthus retroflexus, 312 h
Description: (§1) Seeds of Alopecurus myosuroides (ALOMY), Setaria faberi (SETFA), Echinochloa crus-galli (ECHCG), Solanum nigrum (SOLNI), Amaranthus retoflexus (AMARE) and Ipomea hederaceae (IPOHE) were sown in standard soil in pots. After cultivation for one day under controlled conditions in a glasshouse (at 24/16° C., day/night; 14 hours light; 65% humidity), the plants were sprayed with an aqueous spray solution derived from the formulation of the technical active ingredient in acetone/water (50:50) solution containing 0.5% Tween 20 (polyoxyethelyene sorbitan monolaurate, CAS RN 9005-64-5) to give a final dose of 1000 or 250 g/ha of test compound.
(§2) The test plants were then grown under controlled conditions in the glasshouse (at 24/16° C., day/night; 14 hours light; 65% humidity) and watered twice daily. After 13 days the test was evaluated (100=total damage to plant; 0=no damage to plant).

[2] = test system: Solanum nigrum (SOLNI); experiment: as above; details: 312 h
Description: as §1, §2

[3] = test system: Alopecurus myosuroides (ALOMY); experiment: as above; details: 312 h
Description: as §1, §2

[4] = test system: Ipomea hederaceae (IPOHE); experiment: as above; details: Ipomoea hederacea, 312 h
Description: as §1, §2

[5] = test system: Setaria faberi (SETFA); experiment: as above; details: 312 h
Description: as §1, §2

[6] = test system: Echinochloa crus-galli (ECHCG); experiment: as above; details: 312 h
Description: as §1, §2

[7] = test system: Amaranthus retoflexus (AMARE); experiment: Post-emergence biological efficacy, glasshouse pot test; details: Amaranthus retroflexus, 312 h
Description: as §1, with “8 days” for “one day”
(§3) The test plants were then grown on under controlled conditions in a glasshouse (at 24/16° C., day/night; 14 hours light; 65% humidity) and watered twice daily. After 13 days the test was evaluated (100=total damage to plant; 0=no damage to plant).

[8] = test system: Solanum nigrum (SOLNI); experiment: as above; details: 312 h
Description: as §1, with “8 days” for “one day”
as §3

[9] = test system: Alopecurus myosuroides (ALOMY); experiment: as above; details: 312 h
Description: as §1, with “8 days” for “one day”
as §3

[10] = test system: Ipomea hederaceae (IPOHE); experiment: as above; details: Ipomoea hederacea, 312 h
Description: as §1, with “8 days” for “one day”
as §3

[11] = test system: Setaria faberi (SETFA); experiment: as above; details: 312 h
Description: as §1, with “8 days” for “one day”
as §3

[12] = test system: Echinochloa crus-galli (ECHCG); experiment: as above; details: 312 h
Description: as §1, with “8 days” for “one day”
as §3

[13] = pre-emergence, 1,000 g/ha, evaluated after 13 days (100=total damage; 0=no damage), read-out: Percentage damage AMARE
[14] = pre-emergence, 1,000 g/ha, evaluated after 13 days (100=total damage; 0=no damage), read-out: Percentage damage SOLNI
[15] = pre-emergence, 1,000 g/ha, evaluated after 13 days (100=total damage; 0=no damage), read-out: Percentage damage ALOMY
[16] = pre-emergence, 1,000 g/ha, evaluated after 13 days (100=total damage; 0=no damage), read-out: Percentage damage IPOHE
[17] = pre-emergence, 1,000 g/ha, evaluated after 13 days (100=total damage; 0=no damage), read-out: Percentage damage SETFA
[18] = pre-emergence, 1,000 g/ha, evaluated after 13 days (100=total damage; 0=no damage), read-out: Percentage damage ECHCG
[19] = post-emergence, 1,000 g/ha, evaluated after 13 days (100=total damage; 0=no damage), read-out: Percentage damage caused to weed species, AMARE
[20] = post-emergence, 1,000 g/ha, evaluated after 13 days (100=total damage; 0=no damage), read-out: Percentage damage caused to weed species, SOLNI
[21] = post-emergence, 1,000 g/ha, evaluated after 13 days (100=total damage; 0=no damage), read-out: Percentage damage caused to weed species, ALOMY
[22] = post-emergence, 1,000 g/ha, evaluated after 13 days (100=total damage; 0=no damage), read-out: Percentage damage caused to weed species, IPOHE
[23] = post-emergence, 1,000 g/ha, evaluated after 13 days (100=total damage; 0=no damage), read-out: Percentage damage caused to weed species, SETFA
[24] = post-emergence, 1,000 g/ha, evaluated after 13 days (100=total damage; 0=no damage), read-out: Percentage damage caused to weed species, ECHCG
[25] = pre-emergence, rate 1,000 g/ha, evaluated after 13 days (100=total damage to plant; 0=no damage), read-out: Percentage damage caused to weed species, AMARE
[26] = pre-emergence, rate 1,000 g/ha, evaluated after 13 days (100=total damage to plant; 0=no damage), read-out: Percentage damage caused to weed species, SOLNI
[27] = pre-emergence, rate 1,000 g/ha, evaluated after 13 days (100=total damage to plant; 0=no damage), read-out: Percentage damage caused to weed species, ALOMY
[28] = pre-emergence, rate 1,000 g/ha, evaluated after 13 days (100=total damage to plant; 0=no damage), read-out: Percentage damage caused to weed species, IPOHE
[29] = pre-emergence, rate 1,000 g/ha, evaluated after 13 days (100=total damage to plant; 0=no damage), read-out: Percentage damage caused to weed species, SETFA
[30] = pre-emergence, rate 1,000 g/ha, evaluated after 13 days (100=total damage to plant; 0=no damage), read-out: Percentage damage caused to weed species, ECHCG
[31] = Rate 1,000 g/ha, post-emergence spray, evaluated after 13 days (100=total damage to plant; 0=no damage to plant), read-out: Percentage damage caused to weed species, post-emergence, AMARE
[32] = Rate 1,000 g/ha, post-emergence spray, evaluated after 13 days (100=total damage to plant; 0=no damage to plant), read-out: Percentage damage caused to weed species, post-emergence, SOLNI
[33] = Rate 1,000 g/ha, post-emergence spray, evaluated after 13 days (100=total damage to plant; 0=no damage to plant), read-out: Percentage damage caused to weed species, post-emergence, ALOMY
[34] = Rate 1,000 g/ha, post-emergence spray, evaluated after 13 days (100=total damage to plant; 0=no damage to plant), read-out: Percentage damage caused to weed species, post-emergence, IPOHE
[35] = Rate 1,000 g/ha, post-emergence spray, evaluated after 13 days (100=total damage to plant; 0=no damage to plant), read-out: Percentage damage caused to weed species, post-emergence, SETFA
[36] = Rate 1,000 g/ha, post-emergence spray, evaluated after 13 days (100=total damage to plant; 0=no damage to plant), read-out: Percentage damage caused to weed species, post-emergence, ECHCG

SMILES | pest or weed control at 1000 g/ha [1, 13] [%] | pest or weed control at 1000 g/ha [2, 14] [%] | pest or weed control at 1000 g/ha [3, 15] [%] | pest or weed control at 1000 g/ha [4, 16] [%] | pest or weed control at 1000 g/ha [5, 17] [%] | pest or weed control at 1000 g/ha [6, 18] [%] | pest or weed control at 1000 g/ha [7, 19] [%] | pest or weed control at 1000 g/ha [8, 20] [%] | pest or weed control at 1000 g/ha [9, 21] [%] | pest or weed control at 1000 g/ha [10, 22] [%] | pest or weed control at 1000 g/ha [11, 23] [%] | pest or weed control at 1000 g/ha [12, 24] [%] | other results
COC(=O)c1nc(C2CC2)nc(N[C@@H](Cc2ccc(Cl)cc2)C(=O)OC)c1Cl [4-285 (S), 5-Chloro-4-[(1S)-2-(4-chlorophenyl)-1-methoxycarbonyl-ethylamino]-2-cyclopropyl-6-methoxycarbonyl-pyrimidine] | 90 | 90 | 20 | 70 | 20 | 30 | 100 | 90 | 20 | 90 | 40 | 20 | –
COC(=O)c1nc(C2CC2)nc(N[C@@H](Cc2cccc(C(F)(F)F)c2)C(=O)OC)c1Cl [4-286 (S), 5-Chloro-2-cyclopropyl-6-methoxycarbonyl-4-[(1S)-1-methoxy-carbonyl-2-(3-trifluoromethyl-phenyl)-ethylamino]-pyrimidine] | 90 | 80 | 10 | 100 | 20 | 20 | 100 | 80 | 10 | 50 | 20 | 10 | –
COC(=O)c1nc(C2CC2)nc(N[C@@H](Cc2ccc(O)cc2)C(=O)OC)c1Cl [4-287 (S), 5-Chloro-2-cyclopropyl-4-[(1S)-2-(4-hydroxyphenyl)-1-methoxycarbonyl-ethylamino]-6-methoxycarbonyl-pyrimidine] | 80 | 80 | 20 | 80 | 20 | 10 | 100 | 80 | 20 | 70 | 40 | 60 | –
COC(=O)c1nc(C2CC2)nc(N[C@@H](Cc2ccc(OC(C)(C)C)cc2)C(=O)OC)c1Cl [4-288 (S), 4-[(1S)-2-(4-^tButoxyphenyl)-1-methoxycarbonyl-ethylamino]-5-chloro-2-cyclopropyl-6-methoxycarbonyl-pyrimidine] | 80 | 40 | 0 | 60 | 0 | 0 | 80 | 80 | 10 | 50 | 10 | 0 | –
CCOC(=O)[C@H](CSc1ccccc1)Nc1nc(C2CC2)nc(C(=O)OC)c1Cl [4-292 (R), 5-Chloro-2-cyclopropyl-4-[(1R)-1-ethoxycarbonyl-2-phenylthio-ethylamino]-6-methoxycarbonyl-pyrimidine] | 100 | 80 | 20 | 100 | 10 | 20 | 100 | 70 | 20 | 60 | 50 | 30 | –
COC(=O)c1nc(C2CC2)nc(N[C@@H](Cc2ccccc2)C(=O)OC(C)(C)C)c1Cl [4-293 (S), 4-[(1S)-1-^tButoxycarbonyl-2-phenyl-ethylamino]-5-chloro-2-cyclopropyl-6-methoxycarbonyl-pyrimidine] | – | – | – | – | – | – | – | – | – | – | – | – | pest or weed control at 1000 g/ha [1, 25]: 40%; pest or weed control at 1000 g/ha [2, 26]: 50%; pest or weed control at 1000 g/ha [3, 27]: 10%; pest or weed control at 1000 g/ha [4, 28]: 60%; pest or weed control at 1000 g/ha [5, 29]: 0%; pest or weed control at 1000 g/ha [6, 30]: 20%; pest or weed control at 1000 g/ha [7, 31]: 100%; pest or weed control at 1000 g/ha [8, 32]: 80%; pest or weed control at 1000 g/ha [9, 33]: 10%; pest or weed control at 1000 g/ha [10, 34]: 80%; pest or weed control at 1000 g/ha [11, 35]: 40%; pest or weed control at 1000 g/ha [12, 36]: 20%
COC(=O)c1nc(C2CC2)nc(N(C)[C@@H](Cc2ccccc2)C(=O)OC)c1Cl [5-283 (S), 5-Chloro-2-cyclopropyl-6-methoxycarbonyl-4-{N-[(1S)-1-methoxycarbonyl-2-phenyl-ethyl]-N-methyl-amino}-pyrimidine] | – | – | – | – | – | – | – | – | – | – | – | – | pest or weed control at 1000 g/ha [1, 25]: 80%; pest or weed control at 1000 g/ha [2, 26]: 40%; pest or weed control at 1000 g/ha [3, 27]: 0%; pest or weed control at 1000 g/ha [4, 28]: 30%; pest or weed control at 1000 g/ha [5, 29]: 0%; pest or weed control at 1000 g/ha [6, 30]: 0%; pest or weed control at 1000 g/ha [7, 31]: 100%; pest or weed control at 1000 g/ha [8, 32]: 70%; pest or weed control at 1000 g/ha [9, 33]: 10%; pest or weed control at 1000 g/ha [10, 34]: 50%; pest or weed control at 1000 g/ha [11, 35]: 40%; pest or weed control at 1000 g/ha [12, 36]: 10%
